Data set [1] deals with ALAS1 target site. Nature of the data set: Base editing in liver by LNP-delivered ABE mRNA and sgRNA, targeted deep sequencing. It is filed as in vivo. Particulars: LNP with the ionizable lipid, ABE mRNA + sgRNA targeting ALAS1 1:1; tail vein injection, Balb/c mice; 0.05 mg/kg; tissues four to six days post-dose. As to the method:
(§1) Lipid nanoparticle components were dissolved in 100% ethanol at specified lipid component molar ratios. mRNA encoding an adenine base editor and a chemically-modified sgRNA was dissolved at a mass ratio of 1:1 in 50 mM citrate, pH 4.0, resulting in a concentration of NA cargo of approximately 0.1 mg/mL.
(§2) LNP preparations were formulated with molar ratios of 47.5% Ionizable Lipid: 40% Cholesterol: 2.5% PEG2000-DMG: 10% DSPC total lipid to NA molar ratio of 6 to 12.
(§3) LNP preparations were formed by microfluidic mixing of the lipid and NA solutions using Precision Nanosystems NanoAssemblr Ignite series Instruments, according to the manufacturer's protocol.
(§4) A 3:1 ratio of aqueous to organic solvent was maintained during mixing using differential flow rates. After mixing, LNP preparations were collected and diluted in TBS (approximately 7:1 v/v), and further buffer exchange was conducted using dialysis in TBS at 4° C. for 8 to 24 hours against a 20 kDa filter. After this initial dialysis, each individual LNP preparation was characterized via dynamic light scattering (DLS) to measure size and polydispersity. pKa of a subpopulation of LNP preparations was measured via TNS assay.
Male Balb/C mice aged approximately 8-12 weeks were used in the experiments described herein. […]
Age-matched mice were also used to administer vehicle (1×TBS) via tail vein injection as a control. Four to six days post-dose, tissues including liver, spleen, and bone marrow were collected. Base editing was determined by performing targeted deep sequencing analysis at the ALAS1 target site using extracted genomic DNA. Genomic DNA was isolated and fragmented and adapter-ligated using the Nextera DNA Flex Library Prep Kit (Illumina) using the 96-well plate Nextera indexing primers (Illumina), according to the manufacturer's instructions. Library size and concentration was confirmed by Fragment Analyzer (Agilent) and analyzed for whole genome sequencing using an Illumina HiSeq.

A short description of data set [2]: Encapsulation efficiency of LNP preparations (Ribogreen assay; Qubit, unlysed and lysed LNPs). Format: physicochemical. As to conditions: LNP preparation with the ionizable lipid, ABE mRNA:sgRNA 1:1, except 7-1, 7-2, 7-6, 7-10 (unlysed and lysed LNPs, Qubit). On the procedure: as §1, §2, §3
With the exception of LNPs comprising ionizable lipids 7-1, 7-2, 7-6, and 7-10, RNA concentration and encapsulation efficiency were determined by Ribogreen assay (BioTek Synergy LX plate reader). For LNPs comprising ionizable lipids 7-1, 7-2, 7-6, and 7-10, RNA concentration was determined by Qubit microRNA kit (for siRNA) or HS RNA kit (for mRNA) per manufacturer's instructions, and encapsulation efficiency was determined by measuring unlysed and lysed LNPs.

Data set [3] can be described thus: LNP hydrodynamic diameter and polydispersity index by dynamic light scattering (DLS). It is filed as physicochemical. As to conditions: for Diameter (nm): hydrodynamic diameter of the LNP preparation with the ionizable lipid; for PDI: polydispersity index of the LNP preparation with the ionizable lipid. On the procedure: as §4
DLS-LNP preparation hydrodynamic diameter and polydispersity index (PDI) was measured using high throughput dynamic light scattering (DLS) (DynaPro plate reader II, Wyatt). LNP preparations were diluted 1×PBS to an appropriate concentration and analyzed.

As to `CC/C=C\CCCCOC(CCC(=O)OCC(COC(=O)CCCCCCOC(=O)C(CCCC)CCCCCC)COC(=O)CCC(CCCCCC)OC(=O)OCC1CCCN(CC)C1)OCCCC/C=C\CC` (stereo not shown) [Compound 7-46, 3-((4,4-bis(((Z)-oct-5-en-1-yl)oxy)butanoyl)oxy)-2-(((7-((2-butyloctanoyl)oxy)heptanoyl)oxy)methyl)propyl 4-((((1-ethylpiperidin-3-yl)methoxy)carbonyl)oxy)decanoate], the “% Editing in Liver (0.05 mpk)” value in data set [1] was found to be 1.1%. For the same compound, the “Encapsulation Efficiency (%)” value in data set [2] was determined as 93.7%. In addition, in data set [3], the “Diameter (nm)” value is 82.35 nm and the PDI came to 0.13.

Take `CC/C=C\CCCCOC(CCC(=O)OCC(COC(=O)CCCCCCOC(=O)C(CCCC)CCCCCC)COC(=O)CCC(CCCCCC)OC(=O)NCCCN(CC)CC)OCCCC/C=C\CC` (stereo not shown) [Compound 7-42, 3-((4,4-bis(((Z)-oct-5-en-1-yl)oxy)butanoyl)oxy)-2-(((7-((2-butyloctanoyl)oxy)heptanoyl)oxy)methyl)propyl 4-(((3-(diethylamino)propyl)carbamoyl)oxy)decanoate]: the “% Editing in Liver (0.05 mpk)” value in data set [1] is given as 7.3%. Besides, the “Encapsulation Efficiency (%)” value in data set [2] worked out at 97.2%. Also, in data set [3], the “Diameter (nm)” value is given as 74 nm and the PDI was 0.13.

As for `CC/C=C\CCCCOC(CCC(=O)OCC(COC(=O)CCCCCCOC(=O)C(CCCC)CCCCCC)COC(=O)CCC(CCCCCC)OC(=O)CCCN1CCCC1)OCCCC/C=C\CC` (stereo not shown) [Compound 7-49, 3-((4,4-bis(((Z)-oct-5-en-1-yl)oxy)butanoyl)oxy)-2-(((7-((2-butyloctanoyl)oxy)heptanoyl)oxy)methyl)propyl 4-((4-(pyrrolidin-1-yl)butanoyl)oxy)decanoate], in data set [1], the “% Editing in Liver (0.05 mpk)” value is reported as 6.6%. In data set [2], the “Encapsulation Efficiency (%)” value is 96.3%. In addition, in data set [3], the “Diameter (nm)” value is 57 nm and the PDI is recorded as 0.06.

Regarding `CC/C=C\CCCCOC(CCC(=O)OCC(COC(=O)CCCCCCOC(=O)C(CCCC)CCCCCC)COC(=O)CCC(CCCC)OC(=O)NCCN1CCCC1)OCCCC/C=C\CC` (stereo not shown) [Compound 7-22, 3-((4,4-bis(((Z)-oct-5-en-1-yl)oxy)butanoyl)oxy)-2-(((7-((2-butyloctanoyl)oxy)heptanoyl)oxy)methyl)propyl 4-(((2-(pyrrolidin-1-yl)ethyl)carbamoyl)oxy)octanoate], in data set [1], the “% Editing in Liver (0.05 mpk)” value is reported as 5.6%. In addition, the “Encapsulation Efficiency (%)” value in data set [2] was 97.3%. In data set [3], the “Diameter (nm)” value is on record as 65.85 nm and the PDI stood at 0.06.

Take `CC/C=C\CCCCOC(CCC(=O)OCC(COC(=O)CCCCCCOC(=O)C(CCCC)CCCCCC)COC(=O)CCC(CCCCCCCC)OC(=O)NCCN1CCCC1)OCCCC/C=C\CC` (stereo not shown) [Compound 7-51, 3-((4,4-bis(((Z)-oct-5-en-1-yl)oxy)butanoyl)oxy)-2-(((7-((2-butyloctanoyl)oxy)heptanoyl)oxy)methyl)propyl 4-(((2-(pyrrolidin-1-yl)ethyl)carbamoyl)oxy)dodecanoate]: the “% Editing in Liver (0.05 mpk)” value in data set [1] is 1.0%. For the same compound, the “Encapsulation Efficiency (%)” value in data set [2] was found to be 96.6%. In data set [3], the “Diameter (nm)” value came to 51.15 nm and the PDI turned out to be 0.08.

In the case of `CC/C=C\CCCCOC(CCC(=O)OCC(COC(=O)CCCCCCC(=O)OCCC(CCCC)CCCC)COC(=O)CCC(CCCCCC)OC(=O)NCCN1CCCC1)OCCCC/C=C\CC` (stereo not shown) [Compound 7-18, 1-(3-((4,4-bis(((Z)-oct-5-en-1-yl)oxy)butanoyl)oxy)-2-(((4-(((2-(pyrrolidin-1-yl)ethyl)carbamoyl)oxy)decanoyl)oxy)methyl)propyl) 8-(3-butylheptyl) octanedioate], in data set [1], the “% Editing in Liver (0.05 mpk)” value was found to be 3.3%. For the same compound, the “Encapsulation Efficiency (%)” value in data set [2] came to 96.1%. Also, in data set [3], the “Diameter (nm)” value worked out at 55.60 nm and the PDI is 0.08.

Regarding `CCCCCCCCOC(CCC(=O)OCC(COC(=O)CCCCCCOC(=O)C(CCCC)CCCCCC)COC(=O)CCC(CCCCCC)OC(=O)NCCN1CCCC1)OCCCCCCCC` (stereo not shown) [Compound 7-11, 3-((4,4-bis(octyloxy)butanoyl)oxy)-2-(((7-((2-butyloctanoyl)oxy)heptanoyl)oxy)methyl)propyl 4-(((2-(pyrrolidin-1-yl)ethyl)carbamoyl)oxy)decanoate], the “% Editing in Liver (0.05 mpk)” value in data set [1] stood at 13.2%. Moreover, the “Encapsulation Efficiency (%)” value in data set [2] is given as 99.1%. In data set [3], the “Diameter (nm)” value was found to be 68.00 nm and the PDI was 0.10.

As for `CCCCCCCCOC(CCC(=O)OCC(COC(=O)CCCCCC(=O)OCCC(CCCCC)CCCCC)COC(=O)CCC(CCCCCC)OC(=O)NCCN1CCCC1)OCCCCCCCC` (stereo not shown) [Compound 7-15, 1-(3-((4,4-bis(octyloxy)butanoyl)oxy)-2-(((4-(((2-(pyrrolidin-1-yl)ethyl)carbamoyl)oxy)decanoyl)oxy)methyl)propyl) 7-(3-pentyloctyl) heptanedioate], the “% Editing in Liver (0.05 mpk)” value in data set [1] came to 6.8%. Further, the “Encapsulation Efficiency (%)” value in data set [2] is listed as 97.9%. In data set [3], the “Diameter (nm)” value came to 58.45 nm and the PDI worked out at 0.08.

As to `CC/C=C\CCCCOC(CCC(=O)OCC(COC(=O)CCCCCC(=O)OCCC(CCCCC)CCCCC)COC(=O)CCC(CCCCCC)OC(=O)NCCN1CCCC1)OCCCC/C=C\CC` (stereo not shown) [Compound 7-13, 1-(3-((4,4-bis(((Z)-oct-5-en-1-yl)oxy)butanoyl)oxy)-2-(((4-(((2-(pyrrolidin-1-yl)ethyl)carbamoyl)oxy)decanoyl)oxy)methyl)propyl) 7-(3-pentyloctyl) heptanedioate], the “% Editing in Liver (0.05 mpk)” value in data set [1] stood at 2.2%. In data set [2], the “Encapsulation Efficiency (%)” value was found to be 97.3%. Further, in data set [3], the “Diameter (nm)” value was found to be 52.45 nm and the PDI stood at 0.04.

On to `CC/C=C\CCCCOC(CCC(=O)OCC(COC(=O)CCC(CCCCCC)OC(=O)NCCN1CCCC1)COC(=O)CCC(OCCCC/C=C\CC)OCCCC/C=C\CC)OCCCC/C=C\CC` (stereo not shown) [Compound 7-38, 2-(((4-(((2-(pyrrolidin-1-yl)ethyl)carbamoyl)oxy)decanoyl)oxy)methyl)propane-1,3-diyl bis(4,4-bis(((Z)-oct-5-en-1-yl)oxy)butanoate)], for which, in data set [1], the “% Editing in Liver (0.05 mpk)” value was found to be 9.4%. Further, the “Encapsulation Efficiency (%)” value in data set [2] turned out to be 99.1%. In data set [3], the “Diameter (nm)” value amounted to 60.25 nm and the PDI is given as 0.06.

Turning to `CC/C=C\CCCCOC(CCC(=O)OCC(COC(=O)CCC(CCCCC)OC(=O)NCCN1CCCC1)COC(=O)CCC(OCCCC/C=C\CC)OCCCC/C=C\CC)OCCCC/C=C\CC` (stereo not shown) [Compound 7-37, 2-(((4-(((2-(pyrrolidin-1-yl)ethyl)carbamoyl)oxy)nonanoyl)oxy)methyl)propane-1,3-diyl bis(4,4-bis(((Z)-oct-5-en-1-yl)oxy)butanoate)], in data set [1], the “% Editing in Liver (0.05 mpk)” value is reported as 12.0%. In data set [2], the “Encapsulation Efficiency (%)” value turned out to be 94.7%. Besides, in data set [3], the “Diameter (nm)” value amounted to 66.20 nm and the PDI is recorded as 0.12.

With `CC/C=C\CCCCOC(CCC(=O)OCC(COC(=O)CCCCCC(=O)OC(CCCCCCC)CCCCCCC)COC(=O)CCC(CCCCC)OC(=O)NCCN1CCCC1)OCCCC/C=C\CC` (stereo not shown) [Compound 7-35, 1-(3-((4,4-bis(((Z)-oct-5-en-1-yl)oxy)butanoyl)oxy)-2-(((4-(((2-(pyrrolidin-1-yl)ethyl)carbamoyl)oxy)nonanoyl)oxy)methyl)propyl) 7-(pentadecan-8-yl) heptanedioate], the “% Editing in Liver (0.05 mpk)” value in data set [1] came to 3.1%. For the same compound, the “Encapsulation Efficiency (%)” value in data set [2] is recorded as 96.2%. Besides, in data set [3], the “Diameter (nm)” value is listed as 64.25 nm and the PDI is reported as 0.12.

As to `CC/C=C\CCCCOC(CCC(=O)OCC(COC(=O)CCCCCC(=O)OC(CCCCCCC)CCCCCCC)COC(=O)CCC(CCCCCC)OC(=O)NCCN1CCCC1)OCCCC/C=C\CC` (stereo not shown) [Compound 7-36, 1-(3-((4,4-bis(((Z)-oct-5-en-1-yl)oxy)butanoyl)oxy)-2-(((4-(((2-(pyrrolidin-1-yl)ethyl)carbamoyl)oxy)decanoyl)oxy)methyl)propyl) 7-(pentadecan-8-yl) heptanedioate], the “% Editing in Liver (0.05 mpk)” value in data set [1] worked out at 1.5%. Besides, the “Encapsulation Efficiency (%)” value in data set [2] is listed as 98.2%. In data set [3], the “Diameter (nm)” value turned out to be 53.80 nm and the PDI was determined as 0.04.
